The target in assay [1] is T1, hCB2R (Homo sapiens, UniProt P34972). The assay is described as follows: cell-based. It counts as cell-based. On the set-up: expressed in transfected cells; host or cells: Flp-In-293 (Invitrogen #R750-07), pcDNA5/FRT.
Assay [2] deals with T1, hCB2R. The assay can be described thus: biochemical. It counts as biochemical. On the set-up: expressed in transfected cells; host or cells: Flp-In-293 (Invitrogen #R750-07), pcDNA5/FRT.
A further assay addresses T2, 5-HT2B (h) (Homo sapiens, UniProt P41595).
T2 construct: CEREP (contract assay)
The assay is described as follows: CEREP panel. Type of assay: binding. To be noted: for % inhibition 5-HT2B (h): 10 µM.

Another assay has as its target T3, MAGL (Homo sapiens, UniProt Q99685).
T3 construct: expressed in transfected cells; host or cells: HEK293T (transient), membrane preparation
T3 sequence (Q99685 1-303): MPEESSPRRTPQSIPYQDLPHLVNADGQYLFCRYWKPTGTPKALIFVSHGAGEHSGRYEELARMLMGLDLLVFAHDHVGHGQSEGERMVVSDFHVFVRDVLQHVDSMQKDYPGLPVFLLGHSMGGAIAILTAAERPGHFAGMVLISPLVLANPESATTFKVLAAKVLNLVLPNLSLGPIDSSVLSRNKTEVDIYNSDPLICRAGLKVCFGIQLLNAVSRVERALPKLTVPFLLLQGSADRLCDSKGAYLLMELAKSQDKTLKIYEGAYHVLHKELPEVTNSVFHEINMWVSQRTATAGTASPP
The assay is described as follows: Biochemical MAGL activity assay. The method, then: (§1) Cell culture and membrane preparation were performed as previously described. HEK293T cells (source: Dutch Cancer Institute) were grown in DMEM with stable glutamine and phenolred (PAA), 10% New Born Calf serum, penicillin and streptomycin. Cells were passaged every 2–3 days by resuspending in medium and seeding them to appropriate confluence. Membranes were prepared from transiently transfected HEK293T cells. One day prior to transfection 10^7 cells were seeded in a 15 cm petri dish. Cells were transfected by the addition of a 3:1 mixture of polyethyleneimine (60 μg) and plasmid DNA (20 μg) in 2 ml serum-free medium. The medium was refreshed after 24 h, and after 72 h the cells were harvested by suspending them in 20 ml medium. The suspension was centrifuged for 10 min at 1000, rpm, and the supernatant was removed. The cell pellet was stored at −80 °C until use. Cell pellets were thawed on ice and suspended in lysis buffer A (20 mM HEPES, 2 mM DTT, 0.25 M sucrose, 1 mM MgCl2, […] Benzonase). The suspension was homogenized by polytrone (3 × 7 s) and incubated for 30 min on ice. The suspension was subjected to ultracentrifugation (100,000 × g, 30 min, 4 °C, Beckman Coulter, Type Ti70 rotor) to yield the cytosolic fraction in the supernatant and the membrane fraction as a pellet. The pellet was resuspended in lysis buffer B (20 mM HEPES, 2 mM DTT). The protein concentration was determined with Quick Start Bradford assay (Biorad). The protein fractions were diluted to a total protein concentration of 1 mg ml^−1 and stored in small aliquots at −80 °C until use.
Percentage of inhibition of reference ligands was determined in comparison with an untreated control. […] Fluorescence was measured in 5 min intervals for 60 min.

For assay [3], the target named is T1, hCB2R. The assay can be described thus: cell-based. Type of assay: cell-based. Further details: expressed in transfected cells; host or cells: Flp-In-293 (Invitrogen #R750-07), pcDNA5/FRT. The source holds these as a separate data set.
The target in the next assay is T4, hDAGL-α (Homo sapiens, UniProt Q9Y4D2).
T4 construct: expressed in transfected cells; host or cells: HEK293T (transient), membrane preparation
T4 sequence (Q9Y4D2 1-1042): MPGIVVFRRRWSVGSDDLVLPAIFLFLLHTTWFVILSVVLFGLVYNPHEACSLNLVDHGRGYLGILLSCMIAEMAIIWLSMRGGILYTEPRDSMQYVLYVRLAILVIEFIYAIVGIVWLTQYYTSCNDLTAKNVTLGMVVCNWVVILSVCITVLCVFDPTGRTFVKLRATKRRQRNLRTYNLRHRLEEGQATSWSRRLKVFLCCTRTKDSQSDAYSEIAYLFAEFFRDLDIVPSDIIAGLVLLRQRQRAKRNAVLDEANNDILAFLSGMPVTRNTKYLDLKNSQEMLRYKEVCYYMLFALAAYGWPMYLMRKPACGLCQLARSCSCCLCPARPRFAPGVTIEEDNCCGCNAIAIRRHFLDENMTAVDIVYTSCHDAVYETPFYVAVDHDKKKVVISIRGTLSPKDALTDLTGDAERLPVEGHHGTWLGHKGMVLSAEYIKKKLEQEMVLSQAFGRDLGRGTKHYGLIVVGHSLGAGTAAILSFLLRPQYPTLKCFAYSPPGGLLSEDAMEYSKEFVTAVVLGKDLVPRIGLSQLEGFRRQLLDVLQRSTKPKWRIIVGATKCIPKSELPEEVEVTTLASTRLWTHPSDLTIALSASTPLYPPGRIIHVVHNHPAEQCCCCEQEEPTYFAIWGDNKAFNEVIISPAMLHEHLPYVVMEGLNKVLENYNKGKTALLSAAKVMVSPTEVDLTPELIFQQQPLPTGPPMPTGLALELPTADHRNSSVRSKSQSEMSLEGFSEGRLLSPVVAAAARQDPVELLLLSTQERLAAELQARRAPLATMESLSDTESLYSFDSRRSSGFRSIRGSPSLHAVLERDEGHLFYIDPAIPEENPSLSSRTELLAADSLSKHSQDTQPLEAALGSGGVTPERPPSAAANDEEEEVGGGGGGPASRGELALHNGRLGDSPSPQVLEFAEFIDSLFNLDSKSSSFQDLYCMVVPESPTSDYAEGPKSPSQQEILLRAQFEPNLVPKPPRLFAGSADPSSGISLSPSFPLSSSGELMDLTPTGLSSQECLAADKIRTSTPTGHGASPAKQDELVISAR
The assay can be described thus: Biochemical DAGLα activity assay. The protocol:
as §1
hDAGL-α activity was measured by the extent of the hydrolysis of para-nitrophenylbutyrate (PNP-butyrate) by membrane preparations from HEK293T cells (source: Dutch Cancer Institute) transiently transfected with hDAGL-α (ref. [43]). Percentage of inhibition of reference ligands was determined in comparison with an untreated control. Reactions were performed in 50 mM pH 7.2 HEPES buffer with 0.05 μg μl^−1 final protein concentration hDAGL-α transfected protein.

A further assay addresses T5, mCB1R (Mus musculus, UniProt P47746).
T5 construct: from tissue; host or cells: brain of male C57BL/6J mice
The assay can be described thus: biochemical.

[4] abbreviates: antagonists in presence of EC80 of CP55940.
[5] abbreviates: normalized to 10 µM CP55940, negative = inverse agonism.

This note sets out measurements from publication PMC5216056 (Nature Communications, 2017).

Where “and” joins values, the source holds several entries; their conditions need not be identical. Identical values can stand only once. Like-named read-outs stand apart in the source and are kept apart here.

Usually Emax stands for the maximal effect, on the per cent scale that the assay sets. One may read the inhibition as the relative decrease from the control value, in per cent. Broadly, the EC50 is the concentration needed to bring the measured effect to its halfway point. Higher therefore signals a need for much substance.

T2 sequence (P41595 whole entry): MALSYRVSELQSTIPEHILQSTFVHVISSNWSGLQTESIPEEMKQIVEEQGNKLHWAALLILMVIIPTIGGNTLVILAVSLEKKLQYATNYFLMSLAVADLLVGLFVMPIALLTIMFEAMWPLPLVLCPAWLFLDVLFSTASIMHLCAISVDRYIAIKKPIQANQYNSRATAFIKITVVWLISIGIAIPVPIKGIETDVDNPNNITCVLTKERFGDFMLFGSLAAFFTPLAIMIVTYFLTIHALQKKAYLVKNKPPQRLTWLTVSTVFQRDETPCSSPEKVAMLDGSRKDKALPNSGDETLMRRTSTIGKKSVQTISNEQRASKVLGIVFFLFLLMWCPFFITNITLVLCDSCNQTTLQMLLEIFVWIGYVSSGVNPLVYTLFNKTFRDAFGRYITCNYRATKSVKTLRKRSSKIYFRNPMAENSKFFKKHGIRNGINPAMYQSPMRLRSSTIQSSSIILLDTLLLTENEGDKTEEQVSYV
T1 sequence (P34972 whole entry): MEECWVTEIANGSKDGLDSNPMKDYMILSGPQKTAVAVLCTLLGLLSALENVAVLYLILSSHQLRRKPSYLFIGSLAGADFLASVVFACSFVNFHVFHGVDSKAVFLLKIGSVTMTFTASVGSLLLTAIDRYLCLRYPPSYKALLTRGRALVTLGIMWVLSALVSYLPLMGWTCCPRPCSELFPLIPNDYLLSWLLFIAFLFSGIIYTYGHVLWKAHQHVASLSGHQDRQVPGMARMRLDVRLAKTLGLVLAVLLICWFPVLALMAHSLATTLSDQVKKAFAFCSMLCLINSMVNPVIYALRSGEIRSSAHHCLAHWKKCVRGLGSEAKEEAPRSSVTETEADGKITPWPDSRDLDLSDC
T5 sequence (P47746 whole entry): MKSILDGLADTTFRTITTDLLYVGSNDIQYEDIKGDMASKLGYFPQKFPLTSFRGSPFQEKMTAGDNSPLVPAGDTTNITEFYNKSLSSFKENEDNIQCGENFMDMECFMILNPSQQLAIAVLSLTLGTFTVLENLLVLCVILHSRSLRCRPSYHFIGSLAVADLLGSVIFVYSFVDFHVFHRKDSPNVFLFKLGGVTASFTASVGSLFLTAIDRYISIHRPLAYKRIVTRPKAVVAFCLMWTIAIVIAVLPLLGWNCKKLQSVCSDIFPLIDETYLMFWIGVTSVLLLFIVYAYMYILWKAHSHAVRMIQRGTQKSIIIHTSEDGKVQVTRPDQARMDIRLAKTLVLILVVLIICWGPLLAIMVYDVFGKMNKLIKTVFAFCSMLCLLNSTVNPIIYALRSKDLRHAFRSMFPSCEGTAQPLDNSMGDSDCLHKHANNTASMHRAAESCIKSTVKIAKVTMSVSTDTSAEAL

Turning to `COc1ccc(C(=O)c2c(C)n(CCN3CCOCC3)c3cc(I)ccc23)cc1` [AM630], on hCB2R [1], the “Emax ± SEM pERK hCB2R” value is -92 ± 4 and the “pEC50 ± SEM pERK hCB2R” value stood at 5.09 ± 0.06. For the same molecule, on hCB2R [2], the “Emax ± SEM GTPγS hCB2R” value is recorded as -22 ± 2 and the “pEC50 ± SEM GTPγS hCB2R” value is on record as 6.75 ± 0.20. Moreover, on 5-HT2B (h), the “% inhibition 5-HT2B (h)” value is given as 65%. Moreover, the “MAGL % inhibition at 10 µM ± SD” value at MAGL is recorded as 4 ± 16%. Besides, on hCB2R [3], the “Emax ± SEM cAMP hCB2R” value is listed as -152 ± 13 and the “pEC50 ± SEM cAMP hCB2R” value amounted to 7.56 ± 0.05. In addition, at hDAGL-α, the “DAGL % inhibition at 10 µM ± SD” value is 6 ± 12%. Besides, the “Emax cAMP mCB1R” value on mCB1R is 13. For the same molecule, the “pEC50 ± SEM cAMP mCB1R” value on mCB1R (mouse brain) is below 5.
On to `CCCCCCC(C)(C)c1cc(OC)c([C@@H]2C=C(CO)[C@@H]3C[C@H]2C3(C)C)c(OC)c1` [HU308], for which the Emax on hCB2R [1] (read-out: Emax ± SEM pERK hCB2R) amounted to 93 ± 2%; at hCB2R [2] (read-out: Emax ± SEM GTPγS hCB2R) it was 97 ± 12%; on hCB2R [3] (read-out: Emax ± SEM cAMP hCB2R), 98 ± 1%; at mCB1R (read-out: Emax cAMP mCB1R), 10%. Further, the inhibition at 10 µM at 5-HT2B (h) (read-out: % inhibition 5-HT2B (h)) turned out to be 28%; on MAGL (read-out: MAGL % inhibition at 10 µM ± SD), 7 ± 13%; on hDAGL-α (read-out: DAGL % inhibition at 10 µM ± SD) it was 42 ± 3%. Besides, the EC50 on mCB1R (pEC50 ± SEM cAMP mCB1R, mouse brain) is above 10 µM.
With `CCCCCCC(C)(C)c1cc(OC)c(C2=C[C@H]3CC[C@]2(CO)C3(C)C)c(OC)c1` [HU910], the “pEC50 ± SEM pERK hCB2R” value at hCB2R [1] (setting [4]) is 5.50 ± 0.10 and < 5.5. Further, on hCB2R [1] (normalized to 10 µM CP55940), the “Emax ± SEM pERK hCB2R” value is reported as 104 ± 9%. Moreover, on hCB2R [2], the “pEC50 ± SEM GTPγS hCB2R” value came out at 7.27 ± 0.12. Moreover, the “Emax ± SEM GTPγS hCB2R” value at hCB2R [2] (setting [5]) was determined as 61 ± 13%. Moreover, the “% inhibition 5-HT2B (h)” value on 5-HT2B (h) is recorded as 87%. The “MAGL % inhibition at 10 µM ± SD” value on MAGL is on record as 20 ± 12%. For the same molecule, the “pEC50 ± SEM cAMP hCB2R” value on hCB2R [3] (setting [4]) came out at 8.41 ± 0.13. For the same molecule, the “Emax ± SEM cAMP hCB2R” value on hCB2R [3] (normalized to 10 µM CP55940) was found to be 98 ± 1%. At hDAGL-α, the “DAGL % inhibition at 10 µM ± SD” value was 36 ± 1%. Further, on mCB1R (mouse brain), the “pEC50 ± SEM cAMP mCB1R” value is recorded as below 5. The “Emax cAMP mCB1R” value at mCB1R (normalized to 10 µM CP55940) came to 36%.
For the molecule `CCCC(C)(C)c1ccc2c(c1)OC(C)(C)[C@@H]1CC=C(C)C[C@@H]21` [JWH133], on hCB2R [1], the “Emax ± SEM pERK hCB2R” value worked out at 96 ± 13 and the “pEC50 ± SEM pERK hCB2R” value turned out to be 6.19 ± 0.07. Also, on hCB2R [2], the “Emax ± SEM GTPγS hCB2R” value was found to be 61 ± 15, the “hCB2R Selectivity GTPγS” value is 0.4 and the “pEC50 ± SEM GTPγS hCB2R” value turned out to be 6.96 ± 0.35. For the same molecule, at 5-HT2B (h), the “% inhibition 5-HT2B (h)” value came to 3%. The “MAGL % inhibition at 10 µM ± SD” value on MAGL was -20 ± 5%. Further, on hCB2R [3], the “Emax ± SEM cAMP hCB2R” value is 98 ± 1 and the “pEC50 ± SEM cAMP hCB2R” value was 8.38 ± 0.09. Moreover, the “DAGL % inhibition at 10 µM ± SD” value at hDAGL-α is given as 30 ± 7%. Besides, at mCB1R, the “Emax cAMP mCB1R” value is 11 and the “pEC50 ± SEM cAMP mCB1R” value is recorded as below 5.
With SR144528, the “Emax ± SEM pERK hCB2R” value at hCB2R [1] (normalized to 10 µM CP55940) is -99 ± 3%. Moreover, the “Emax ± SEM GTPγS hCB2R” value at hCB2R [2] (setting [5]) was -29 ± 2%. At 5-HT2B (h), the “% inhibition 5-HT2B (h)” value amounted to 22%. The “MAGL % inhibition at 10 µM ± SD” value at MAGL was 3 ± 16%. Further, the “Emax ± SEM cAMP hCB2R” value at hCB2R [3] (normalized to 10 µM CP55940) is -151 ± 10%. For the same molecule, the “DAGL % inhibition at 10 µM ± SD” value on hDAGL-α was -28 ± 11%. The “Emax cAMP mCB1R” value at mCB1R (normalized to 10 µM CP55940) is given as -39%.
